Reference: PubChem BioAssay AID1963970 (Molecular Pharmacology Branch, DTP, NCI, 2024)

Test system: 931267-113-T-J1-PDC multicell spheroid viability
Assay: Anticancer human tumor 931267-113-T-J1-PDC patient-derived colon adenocarcinoma cell line growth inhibition [PI3K]
Details: for IC50: curve of first compound; for viability, T/C: stronger effect = lower value
Summary of the method: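 Agents were dosed from a top concentration near clinical Cmax (otherwise 10 microM) in half-log decrements, alone or combined with PI3K inhibitors. The spheroids contain tumor cells plus endothelial (HUVEC) and MSC stroma; viability is measured.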
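Note: viability read 7 days after compound addition.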

`C=CC(=O)N1CCN(c2nc(=O)n(-c3c(C)ccnc3C(C)C)c3nc(-c4c(O)cccc4F)c(F)cc23)C(C)C1` (configuration not stated) + Cc1nc(NC(=O)N2CCCC2C(N)=O)sc1-c1ccnc(C(C)(C)C(F)(F)F)c1 gave an IC50 (second compound 0.0316 µM) of over 10 µM, an IC50 (second compound 0.1 µM) of over 10 µM and an IC50 (second compound 0.316 µM) of over 10 µM. It also gave an IC50 (second compound 1 µM) of over 10 µM, an IC50 (second compound 3.16 µM) of over 10 µM and an IC50 (second compound 10 µM) of over 10 µM. It also gave a viability, T/C (second compound 0.0316 µM, first compound 0.0316 µM) of 86.3%, a viability, T/C (second compound 0.0316 µM, first compound 0.1 µM) of 91.1% and a viability, T/C (second compound 0.0316 µM, first compound 0.316 µM) of 99.2%. It also gave a viability, T/C (second compound 0.0316 µM, first compound 1 µM) of 104%, a viability, T/C (second compound 0.0316 µM, first compound 3.16 µM) of 108% and a viability, T/C (second compound 0.0316 µM, first compound 10 µM) of 85.5%. For the same molecule, the viability, T/C (second compound 0.1 µM, first compound 0.0316 µM) was 99.6%, the viability, T/C (second compound 0.1 µM, first compound 0.1 µM) was 78.7% and the viability, T/C (second compound 0.1 µM, first compound 0.316 µM) was 85.7%. The viability, T/C (second compound 0.1 µM, first compound 1 µM) was 100%, the viability, T/C (second compound 0.1 µM, first compound 3.16 µM) was 105% and the viability, T/C (second compound 0.1 µM, first compound 10 µM) was 82.7%. The viability, T/C (second compound 0.316 µM, first compound 0.0316 µM) was 80.6%, the viability, T/C (second compound 0.316 µM, first compound 0.1 µM) was 87.2% and the viability, T/C (second compound 0.316 µM, first compound 0.316 µM) was 94.1%. The viability, T/C (second compound 0.316 µM, first compound 1 µM) was 91.8%, the viability, T/C (second compound 0.316 µM, first compound 3.16 µM) was 84.7% and the viability, T/C (second compound 0.316 µM, first compound 10 µM) was 76.9%. The viability, T/C (second compound 1 µM, first compound 0.0316 µM) was 83.5%, the viability, T/C (second compound 1 µM, first compound 0.1 µM) was 76.6% and the viability, T/C (second compound 1 µM, first compound 0.316 µM) was 73.9%. It also gave a viability, T/C (second compound 1 µM, first compound 1 µM) of 83.7%, a viability, T/C (second compound 1 µM, first compound 3.16 µM) of 94.7% and a viability, T/C (second compound 1 µM, first compound 10 µM) of 65.6%. For the same molecule, the viability, T/C (second compound 3.16 µM, first compound 0.0316 µM) was 66.3%, the viability, T/C (second compound 3.16 µM, first compound 0.1 µM) was 71.3% and the viability, T/C (second compound 3.16 µM, first compound 0.316 µM) was 71.1%. The viability, T/C (second compound 3.16 µM, first compound 1 µM) was 72.7%, the viability, T/C (second compound 3.16 µM, first compound 3.16 µM) was 71.2% and the viability, T/C (second compound 3.16 µM, first compound 10 µM) was 59%. For the same molecule, the viability, T/C (second compound 10 µM, first compound 0.0316 µM) was 54.6%, the viability, T/C (second compound 10 µM, first compound 0.1 µM) was 55.2% and the viability, T/C (second compound 10 µM, first compound 0.316 µM) was 59.2%. The viability, T/C (second compound 10 µM, first compound 1 µM) was 62.6%, the viability, T/C (second compound 10 µM, first compound 3.16 µM) was 62.4% and the viability, T/C (second compound 10 µM, first compound 10 µM) was 49%.
